Results from EP4467141A1, “PYRAZOLO-QUINOLINES AS SELECTIVE INHIBITORS OF GENOTOXIC STRESS-INDUCED IKK/NF- KB PATHWAYS FOR CANCER THERAPY” (Max-Delbrück-Centrum für Molekulare Medizin in der …, priority 2023, dated 2024).

How the values were obtained:
Experiment in all cases: Kinase panel study
Format in all cases: biochemical
Settings in all cases: read-out: Percentage of inhibition; for inhibition at 1 µM: 1000nM; for inhibition at 10 µM: 10000nM
[1] = target: T1, MERTK (cMER) (Homo sapiens, UniProt Q12866)
T1 construct: purchased Thermo Fisher Scientific
T1 sequence (Q12866 21-999): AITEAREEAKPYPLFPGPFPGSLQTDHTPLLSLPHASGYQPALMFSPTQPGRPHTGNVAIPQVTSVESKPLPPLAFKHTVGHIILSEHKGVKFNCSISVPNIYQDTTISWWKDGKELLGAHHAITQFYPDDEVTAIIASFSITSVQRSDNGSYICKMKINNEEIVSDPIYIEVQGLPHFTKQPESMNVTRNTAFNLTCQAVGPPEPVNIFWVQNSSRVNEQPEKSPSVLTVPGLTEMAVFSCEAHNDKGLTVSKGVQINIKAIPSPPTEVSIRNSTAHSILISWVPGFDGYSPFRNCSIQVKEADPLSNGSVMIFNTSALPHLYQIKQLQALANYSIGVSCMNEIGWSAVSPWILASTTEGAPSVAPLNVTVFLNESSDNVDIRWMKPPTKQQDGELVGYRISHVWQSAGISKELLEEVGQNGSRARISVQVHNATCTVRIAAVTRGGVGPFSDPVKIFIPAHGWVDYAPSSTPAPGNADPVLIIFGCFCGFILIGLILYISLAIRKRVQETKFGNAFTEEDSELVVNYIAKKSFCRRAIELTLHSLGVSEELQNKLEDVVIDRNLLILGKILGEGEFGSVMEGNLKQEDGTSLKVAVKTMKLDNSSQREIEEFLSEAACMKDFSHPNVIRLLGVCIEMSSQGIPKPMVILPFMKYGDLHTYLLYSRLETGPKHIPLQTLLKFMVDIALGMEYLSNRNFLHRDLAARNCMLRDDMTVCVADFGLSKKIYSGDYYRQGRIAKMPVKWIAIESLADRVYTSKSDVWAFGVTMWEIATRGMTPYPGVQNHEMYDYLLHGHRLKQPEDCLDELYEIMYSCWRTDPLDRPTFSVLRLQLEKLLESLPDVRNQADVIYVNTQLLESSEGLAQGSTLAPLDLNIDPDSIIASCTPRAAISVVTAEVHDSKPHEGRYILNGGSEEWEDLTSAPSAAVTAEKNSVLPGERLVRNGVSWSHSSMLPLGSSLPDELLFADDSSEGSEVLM
Outline: (§1)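 Kinase inhibition was determined by a contract provider in cell-free ZLyte or Adapta assays. Results are expressed as % inhibition at 10 or 1 µM.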

[2] = target: T2, FER (Homo sapiens, UniProt P16591)
T2 construct: purchased Thermo Fisher Scientific
Outline: as §1

[3] = target: T3, MAPKAPK5 (PRAK) (Homo sapiens, UniProt Q8IW41)
T3 construct: purchased Thermo Fisher Scientific
T3 sequence (Q8IW41 1-473): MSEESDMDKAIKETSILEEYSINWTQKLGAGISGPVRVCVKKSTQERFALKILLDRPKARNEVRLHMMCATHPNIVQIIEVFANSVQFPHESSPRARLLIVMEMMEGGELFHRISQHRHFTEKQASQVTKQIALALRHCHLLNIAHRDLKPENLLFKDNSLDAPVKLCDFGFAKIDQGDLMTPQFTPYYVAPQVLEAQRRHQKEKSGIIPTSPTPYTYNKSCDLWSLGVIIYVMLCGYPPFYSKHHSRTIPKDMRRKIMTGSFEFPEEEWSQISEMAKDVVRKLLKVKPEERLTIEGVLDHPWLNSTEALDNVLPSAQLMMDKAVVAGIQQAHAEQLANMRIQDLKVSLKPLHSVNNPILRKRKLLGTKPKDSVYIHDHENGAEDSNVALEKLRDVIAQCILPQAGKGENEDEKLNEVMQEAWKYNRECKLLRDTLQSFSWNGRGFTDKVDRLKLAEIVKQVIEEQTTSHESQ
Outline: as §1

T2 sequence (P16591 whole entry): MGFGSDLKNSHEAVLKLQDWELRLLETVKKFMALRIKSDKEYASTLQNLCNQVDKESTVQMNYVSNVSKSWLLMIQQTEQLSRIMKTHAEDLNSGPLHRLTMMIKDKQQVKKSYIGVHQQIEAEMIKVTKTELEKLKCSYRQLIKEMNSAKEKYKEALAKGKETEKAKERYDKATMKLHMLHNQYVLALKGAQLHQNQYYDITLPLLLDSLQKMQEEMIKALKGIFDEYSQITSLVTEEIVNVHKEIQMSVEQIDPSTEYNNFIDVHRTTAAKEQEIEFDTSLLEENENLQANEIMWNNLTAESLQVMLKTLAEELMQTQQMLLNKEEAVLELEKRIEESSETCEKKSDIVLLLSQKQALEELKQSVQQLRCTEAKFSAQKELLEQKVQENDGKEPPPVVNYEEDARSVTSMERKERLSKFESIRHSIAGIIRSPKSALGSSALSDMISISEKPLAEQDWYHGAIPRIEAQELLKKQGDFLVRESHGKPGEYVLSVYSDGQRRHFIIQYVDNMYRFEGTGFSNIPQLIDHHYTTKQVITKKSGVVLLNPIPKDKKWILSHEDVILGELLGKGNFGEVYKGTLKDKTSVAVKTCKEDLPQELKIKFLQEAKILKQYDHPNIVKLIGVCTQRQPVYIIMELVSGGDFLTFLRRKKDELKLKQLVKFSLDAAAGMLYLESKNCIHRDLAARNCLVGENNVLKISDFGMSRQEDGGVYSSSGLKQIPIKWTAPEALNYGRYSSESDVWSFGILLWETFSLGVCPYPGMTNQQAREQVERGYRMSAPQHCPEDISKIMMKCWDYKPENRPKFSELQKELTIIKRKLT

Question: `COc1ccc2c(c1OC)c(=O)n1c3ccc(O)cc3c3ccnc2c31` [MW01, 5-Hydroxy-10,11-dimethoxy-9H-benzo[c]indolo[3,2,1-ij][1,5]naphthyridin-9-one] was tested. Which inhibition at 1 µM [1] did it give?
Answer: 54%

Question: What about the inhibition at 10 µM [1] of the same compound?
Answer: 86%

Question: What about the inhibition at 1 µM [2] of the same compound?
Answer: 11%

Question: What about the inhibition at 10 µM [2] of the same compound?
Answer: 25%

Question: And the inhibition at 1 µM [3]?
Answer: 8%

Question: And the inhibition at 10 µM [3]?
Answer: 18%

Question: What does the source list for `COc1ccc2cc3c(N)nn(C(=O)c4cccc(N(C)C)c4)c3nc2c1` [MW05, (3-Amino-7-methoxypyrazolo[3,4-b]quinolin-1-yl)-[3-(dimethylamino)phenyl]methanone]?
Answer: inhibition at 1 µM [1]: 4%; inhibition at 10 µM [1]: 11%; inhibition at 1 µM [2]: 7%; inhibition at 10 µM [2]: 0%; inhibition at 1 µM [3]: 7%; inhibition at 10 µM [3]: 7%
